Experimental data from ChEMBL document CHEMBL1156612, “The chemical and hydroxyl radical scavenging activity changes of ginsenoside-Rb1 by heat processing” (Bioorg Med Chem Lett, 2008).

How the values were obtained:
Assay type in all cases: functional
Design in all cases: scale not given: the % may be the effect or the level left
[1] = Antioxidant activity assessed as inhibition of hydroxyl radical production after heat processing
[2] = Antioxidant activity assessed as inhibition of hydroxyl radical production at 0.05% concentration%
[3] = Antioxidant activity assessed as inhibition of hydroxyl radical production at 0.5% concentration%

Question: What does the source list for CC(C)=CCC[C@](C)(O[C@@H]1O[C@H](CO[C@@H]2O[C@H](CO)[C@@H](O)[C@H](O)[C@H]2O)[C@@H](O)[C@H](O)[C@H]1O)[C@H]1CC[C@]2(C)[C@@H]1[C@H](O)C[C@@H]1[C@@]3(C)CC[C@H](O[C@@H]4O[C@H](CO)[C@@H](O)[C@H](O)[C@H]4O[C@@H]4O[C@H](CO)[C@@H](O)[C@H](O)[C@H]4O)C(C)(C)[C@@H]3CC[C@]12C?
Answer: Activity [1]: 42%; Activity [2]: 47%; Activity [3]: 24%
